Measurements: ChEMBL document CHEMBL3885861, “Open TG-GATES”

Organism: Rattus norvegicus
Experiment: Open TG-GATES - Regimen: Daily Repeat
Type: toxicity, organism-based, Sprague-Dawley
Design: regimen Daily Repeat, gender Male, age 6 weeks
Conditions: in vivo, po, 100 mg/kg, route gavage, dose level Middle; for KIDNEY_L / KIDNEY_R / KIDNEY_TOTAL: tissue Kidney; for ALT / AST / CRE / DBIL / GLC / IP / K / LDH / PL / RALB / TBIL / TC / TG / TP / gamma-GTP: tissue Plasma

Compound CC(C)OC(=O)C(C)(C)Oc1ccc(C(=O)c2ccc(Cl)cc2)cc1 [FENOFIBRATE] has a TERMINAL_BW (72 h, time 3 day) of 219 g, a Bas (72 h, tissue Blood, time 3 day) of 0.2% and an Eos (72 h, tissue Blood, time 3 day) of 1%. For the same compound, the Fbg (72 h, tissue Blood, time 3 day) was 242.4 mg/dL, the Ht (72 h, tissue Blood, time 3 day) was 40.5% and the MCHC (72 h, tissue Blood, time 3 day) was 32.9%. The Mono (72 h, tissue Blood, time 3 day) was 3.4%, the Plat (72 h, tissue Blood, time 3 day) was 110.8 x10_4/uL and the RBC (72 h, tissue Blood, time 3 day) was 619.6 x10_4/ul. For the same compound, the Ret (72 h, tissue Blood, time 3 day) was 6.7%, the WBC (72 h, tissue Blood, time 3 day) was 92.3 x10_2/uL and the KIDNEY_L (72 h, time 3 day) was 1 g. The KIDNEY_R (72 h, time 3 day) was 1 g, the KIDNEY_TOTAL (72 h, time 3 day) was 1.9 g and the ALT (72 h, time 3 day) was 52 IU/L. It also gave an AST (72 h, time 3 day) of 77.6 IU/L, a CRE (72 h, time 3 day) of 0.2 mg/dL and a DBIL (72 h, time 3 day) of 0.012 mg/dL. The GLC (72 h, time 3 day) was 184.2 mg/dL, the IP (72 h, time 3 day) was 7.5 mg/dL and the K (72 h, time 3 day) was 4.1 meq/L. It also gave an LDH (72 h, time 3 day) of 90 IU/L, a PL (72 h, time 3 day) of 118.6 mg/dL and an RALB (72 h, time 3 day) of 2.6 g/dL. It also gave a TBIL (72 h, time 3 day) of 0.034 mg/dL, a TC (72 h, time 3 day) of 58.6 mg/dL and a TG (72 h, time 3 day) of 41.6 mg/dL. It also gave a TP (72 h, time 3 day) of 5.5 g/dL, a gamma-GTP (72 h, time 3 day) of 1.2 IU/L and a TERMINAL_BW ([…], time 7 day) of 251.5 g. For the same compound, the TERMINAL_BW ([…], time 14 day) was 311 g, the TERMINAL_BW ([…], time 28 day) was 352.5 g and the Bas ([…], tissue Blood, time 7 day) was 0.2%. It also gave an Eos ([…], tissue Blood, time 7 day) of 1%, a Fbg ([…], tissue Blood, time 7 day) of 232.2 mg/dL and a Ht ([…], tissue Blood, time 7 day) of 40.3%. For the same compound, the MCHC ([…], tissue Blood, time 7 day) was 32.4%, the Mono ([…], tissue Blood, time 7 day) was 4% and the Plat ([…], tissue Blood, time 7 day) was 127.1 x10_4/uL. It also gave an RBC ([…], tissue Blood, time 7 day) of 650.8 x10_4/ul, a Ret ([…], tissue Blood, time 7 day) of 5.7% and a WBC ([…], tissue Blood, time 7 day) of 98.5 x10_2/uL. It also gave a Bas ([…], tissue Blood, time 14 day) of 0%, an Eos ([…], tissue Blood, time 14 day) of 0.8% and a Fbg ([…], tissue Blood, time 14 day) of 230 mg/dL. For the same compound, the Ht ([…], tissue Blood, time 14 day) was 40.9%, the MCHC ([…], tissue Blood, time 14 day) was 32.9% and the Mono ([…], tissue Blood, time 14 day) was 3.2%. For the same compound, the Plat ([…], tissue Blood, time 14 day) was 131.7 x10_4/uL, the RBC ([…], tissue Blood, time 14 day) was 660.8 x10_4/ul and the Ret ([…], tissue Blood, time 14 day) was 5.1%. It also gave a WBC ([…], tissue Blood, time 14 day) of 106.3 x10_2/uL, a Bas ([…], tissue Blood, time 28 day) of 0.8% and an Eos ([…], tissue Blood, time 28 day) of 1.2%. It also gave a Fbg ([…], tissue Blood, time 28 day) of 207.2 mg/dL, a Ht ([…], tissue Blood, time 28 day) of 44.3% and an MCHC ([…], tissue Blood, time 28 day) of 33.6%. It also gave an MCV ([…], tissue Blood, time 28 day) of 56.8 fL, a Mono ([…], tissue Blood, time 28 day) of 3.2% and a Plat ([…], tissue Blood, time 28 day) of 107.6 x10_4/uL. It also gave an RBC ([…], tissue Blood, time 28 day) of 780.8 x10_4/ul, a Ret ([…], tissue Blood, time 28 day) of 2.4% and a WBC ([…], tissue Blood, time 28 day) of 148.1 x10_2/uL. It also gave a KIDNEY_L ([…], time 7 day) of 1.1 g, a KIDNEY_R ([…], time 7 day) of 1.1 g and a KIDNEY_TOTAL ([…], time 7 day) of 2.2 g. It also gave a KIDNEY_L ([…], time 14 day) of 1.3 g, a KIDNEY_R ([…], time 14 day) of 1.3 g and a KIDNEY_TOTAL ([…], time 14 day) of 2.6 g. It also gave a KIDNEY_L ([…], time 28 day) of 1.4 g, a KIDNEY_R ([…], time 28 day) of 1.4 g and a KIDNEY_TOTAL ([…], time 28 day) of 2.8 g. The ALT ([…], time 7 day) was 41.2 IU/L, the AST ([…], time 7 day) was 67.8 IU/L and the CRE ([…], time 7 day) was 0.2 mg/dL. It also gave a DBIL ([…], time 7 day) of 0.012 mg/dL, a GLC ([…], time 7 day) of 186.8 mg/dL and an IP ([…], time 7 day) of 8 mg/dL. For the same compound, the K ([…], time 7 day) was 4.3 meq/L, the LDH ([…], time 7 day) was 126.2 IU/L and the PL ([…], time 7 day) was 119.8 mg/dL. For the same compound, the RALB ([…], time 7 day) was 2.8 g/dL, the TBIL ([…], time 7 day) was 0.028 mg/dL and the TC ([…], time 7 day) was 55.6 mg/dL. For the same compound, the TG ([…], time 7 day) was 47.4 mg/dL, the TP ([…], time 7 day) was 5.9 g/dL and the gamma-GTP ([…], time 7 day) was 1 IU/L. The ALT ([…], time 14 day) was 43 IU/L, the AST ([…], time 14 day) was 69 IU/L and the CRE ([…], time 14 day) was 0.2 mg/dL. The DBIL ([…], time 14 day) was 0.014 mg/dL, the GLC ([…], time 14 day) was 192.8 mg/dL and the IP ([…], time 14 day) was 6.9 mg/dL. It also gave a K ([…], time 14 day) of 4.1 meq/L, an LDH ([…], time 14 day) of 106.8 IU/L and a PL ([…], time 14 day) of 135.2 mg/dL. The RALB ([…], time 14 day) was 2.8 g/dL, the TBIL ([…], time 14 day) was 0.026 mg/dL and the TC ([…], time 14 day) was 57.8 mg/dL. The TG ([…], time 14 day) was 78 mg/dL, the TP ([…], time 14 day) was 6 g/dL and the gamma-GTP ([…], time 14 day) was 1 IU/L. It also gave an ALT ([…], time 28 day) of 47.6 IU/L, an AST ([…], time 28 day) of 69.2 IU/L and a CRE ([…], time 28 day) of 0.2 mg/dL. For the same compound, the DBIL ([…], time 28 day) was 0.016 mg/dL, the GLC ([…], time 28 day) was 179 mg/dL and the IP ([…], time 28 day) was 7.6 mg/dL. For the same compound, the K ([…], time 28 day) was 3.8 meq/L, the LDH ([…], time 28 day) was 110.8 IU/L and the PL ([…], time 28 day) was 129.8 mg/dL. For the same compound, the RALB ([…], time 28 day) was 3 g/dL, the TBIL ([…], time 28 day) was 0.036 mg/dL and the TC ([…], time 28 day) was 55 mg/dL. For the same compound, the TG ([…], time 28 day) was 60.2 mg/dL, the TP ([…], time 28 day) was 6.5 g/dL and the gamma-GTP ([…], time 28 day) was 1.2 IU/L.
